Test results as given in patent US6436939B2, “Method for using 2-aryloxyalkylaminobenzoxazoles and 2-aryloxyalkylaminobenzothiazoles as H3 antagonists” (Ortho-McNeil Pharmaceutical, Inc., priority 2000, dated 2002).
pKi: −log10 of the molar value. Where a name gives a salt, the structure may show the parent alone.

molecular target: T1, human histamine H3 receptor (Homo sapiens, UniProt Q9Y5N1); test: [3H]-N-methylhistamine binding to membranes of H3 receptor-expressing SK-N-MC cells; details: 0.8 nM [3H]-N-methylhistamine, 45 minutes at 25° C., SK-N-MC cell membranes; KI from IC50 with KD 800 pM
T1 construct: expressed in transfected cells; membranes prepared
T1 sequence (Q9Y5N1 whole entry): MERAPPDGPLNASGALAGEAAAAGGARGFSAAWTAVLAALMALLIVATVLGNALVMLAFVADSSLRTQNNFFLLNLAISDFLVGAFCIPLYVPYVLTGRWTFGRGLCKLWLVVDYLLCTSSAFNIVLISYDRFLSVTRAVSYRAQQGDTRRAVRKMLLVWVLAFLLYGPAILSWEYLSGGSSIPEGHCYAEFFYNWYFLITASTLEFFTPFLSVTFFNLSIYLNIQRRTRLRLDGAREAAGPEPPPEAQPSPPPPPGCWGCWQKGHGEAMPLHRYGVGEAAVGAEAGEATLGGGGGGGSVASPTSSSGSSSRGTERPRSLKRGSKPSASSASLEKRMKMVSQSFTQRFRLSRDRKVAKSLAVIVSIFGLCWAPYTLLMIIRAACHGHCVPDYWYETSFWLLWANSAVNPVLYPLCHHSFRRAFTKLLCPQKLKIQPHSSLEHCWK
Protocol: In the present invention receptor binding was determined using the human histamine H3 receptor (See Lovenberg et al Mol. Pharmacol. 1999, 1107). Screening using the human receptor is particularly important for the identification of new therapies for the treatment of human disease. Conventional binding assays for example are determined using rat synaptosomes (Garbarg et al J. Pharmacol. Exp. Ther. 1992, 263, 304), rat cortical membranes (West et al Mol. Pharmacol. 1990, 610), and guinea pig brain (Korte et al Biochem. Biophys. Res. Commun. 1990, 978). Only limited studies have been performed previously using human tissue but these allude to significant differences in the pharmacology of rodent and primate receptors (West et al Eur. J. Pharmacol. 1999, 233).
A 10 cm tissue culture dish with a confluent monolayer of SK-N-MC cells was split two days prior to transfection. Using sterile technique the media was removed and the cells were detached from the dish by the addition of trypsin. One fifth of the cells were then placed onto a new 10 cm dish. Cells were grown in a 37° C. incubator with 5% CO2 in Minimal Essential Media Eagle with 10% Fetal Bovine Serum. After two days cells were approximately 80% confluent. These were removed from the dish with trypsin and pelleted in a clinical centrifuge. The pellet was then re-suspended in 400 μL complete media and transferred to an electroporation cuvette with a 0.4 cm gap between the electrodes (Bio-Rad #165-2088). One microgram supercoiled H3 receptor CDNA was added to the cells and mixed. The voltage for the electroporation was set at 0.25 kV, the capacitance is set at 960 μF.
After electroporation the cells were diluted into 10 mL complete media and plated onto four 10 cm dishes. Due to the variability in the efficiency of electroporation, four different concentrations of cells were plated. The ratios used were: 1:20, 1:10, and 1:5, with the remainder of the cells being added to the fourth dish. The cells were allowed to recover for 24 hours before adding the selection media (complete media with 600 μg/ml G418). After 10 days dishes were analyzed for surviving colonies of cells. Dishes with well-isolated colonies were used. Cells from individual colonies were isolated and tested. SK-N-MC cells were used because they give efficient coupling for inhibition of adenylate cyclase. The clones that gave the most robust inhibition of adenylate cyclase in response to histamine were used for further study.
Cell pellets from histamine H3 receptor-expressing SK-N-MC cells were homogenized in 20 mM TrisHCl/0.5 mM EDTA. Supernatants from a 800 g spin were collected, reccentrifuged at 30,000 g for 30 minutes. Pellets were rehomogenized in 50 mM Tris/5 mM EDTA (pH 7.4). Membranes were incubated with 0.8 nM [^3H]-N-methylhistamine plus/minus test compounds for 45 minutes at 25° C. and harvested by rapid filtration over GF/C glass fiber filters (pretreated with 0.3% polyethylenimine) followed by four washes with ice cold buffer. Filters were dried, added to 4 mL scintillation cocktail and then counted on a liquid scintillation counter. Non-specific binding was defined with 10 μM histamine according to Chen and Prusoff, Biochem. Pharmacol. 1973, 22:3099. KI values were calculated based on a KD of 800 pM and a ligand concentration ([L]) of 800 pM according to the formula: […]
KI values are provided in the examples above.

Row | Structure (SMILES) | pKi
1 | C(=C\c1nc2ccccc2s1)/c1ccc(OCCCN2CCCCC2)cc1 [Example 3, (E)-2-[2-(4-Piperidinopropoxyphenyl)ethenyl]benzothiazole] | 7.82
2 | C(=C\c1nc2ccccc2o1)/c1ccc(OCCCCN2CCCC2)cc1 [Example 9, (E)-2-[2-(4-Pyrrolinobutoxyphenyl)ethenyl]benzoxazole] | 7.77
3 | C(=C\c1nc2ccccc2o1)/c1ccc(OCCCCN2CCCCC2)cc1 [Example 6, (E)-2-[2-(4-Piperidinobutoxyphenyl)ethenyl]benzoxazole] | 7.47
4 | CCCN(CCC)CCCCOc1c(C)cc(/C=C/c2nc3ccccc3s2)cc1C [Example 12, (E)-2-[2-(3,5-Dimethyl-4-dipropylaminobutoxyphenyl)ethenyl]benzothiazole] | 6.00
5 | CCN(CC)CCCCOc1ccc(/C=C/c2nc3ccccc3o2)cc1 [Example 7, (E)-2-[2-(4-Diethylaminobutoxyphenyl)ethenyl]benzoxazole] | 7.32
6 | C(=C\c1nc2ccccc2o1)/c1ccc(OCCCN2CCCCC2)cc1 [Example 4, (E)-2-[2-[4-(3-Piperidinopropoxy)phenyl]ethenyl]benzoxazole] | 7.89
7 | CCN(CC)CCCOc1ccc(/C=C/c2nc3ccccc3o2)cc1 [Example 8, (E)-2-[2-(4-Diethylaminopropoxyphenyl)ethenyl]benzoxazole] | 7.51
8 | CCCN(CCC)CCCOc1ccc(-c2nc3ccccc3s2)cc1 [Example 11, 2-(4-Dipropylaminopropoxyphenyl)benzothiazole] | 6.76

test system: not given; test: not given; details: not given

Row | melting point [°C] | Structure (SMILES)
9 | 215 to 217 | C(=C\c1nc2ccccc2s1)/c1ccc(OCCCN2CCCCC2)cc1 (as salt: HCl) [Example 3, (E)-2-[2-(4-Piperidinopropoxyphenyl)ethenyl]benzothiazole]
10 | 142 to 143 | CCCN(CCC)CCCOc1ccc(-c2nc3ccccc3s2)cc1 (as salt: HCl) [Example 11, 2-(4-Dipropylaminopropoxyphenyl)benzothiazole]
11 | 127 to 128 | C(=C\c1nc2ccccc2o1)/c1ccc(OCCCN2CCCCC2)cc1 (as salt: HCl) [Example 4, (E)-2-[2-[4-(3-Piperidinopropoxy)phenyl]ethenyl]benzoxazole]
12 | 225 to 226 | CCN(CC)CCCOc1ccc(/C=C/c2nc3ccccc3o2)cc1 (as salt: HCl) [Example 8, (E)-2-[2-(4-Diethylaminopropoxyphenyl)ethenyl]benzoxazole]

The next lines start with the compound.

Row | Structure (SMILES) | melting point [°C]
13 | C(=C\c1nc2ccccc2o1)/c1ccc(OCCCCN2CCCC2)cc1 (as salt: HCl) [Example 9, (E)-2-[2-(4-Pyrrolinobutoxyphenyl)ethenyl]benzoxazole] | 229 to 232
14 | CCN(CC)CCCCOc1ccc(/C=C/c2nc3ccccc3o2)cc1 (as salt: HCl) [Example 7, (E)-2-[2-(4-Diethylaminobutoxyphenyl)ethenyl]benzoxazole] | 219 to 220
15 | C(=C\c1nc2ccccc2o1)/c1ccc(OCCCCN2CCCCC2)cc1 (as salt: HCl) [Example 6, (E)-2-[2-(4-Piperidinobutoxyphenyl)ethenyl]benzoxazole] | 230 to 232
